In brackets after ≈: the same amount, converted by molar mass. Bounds are passed on as bounds.

The conditions of this data set: buffer; pH 7.4; 200.0 µM.
Turning to `CC(=O)c1c[nH]c(C(=O)NCc2ccccc2Cl)c1`, the kinetic solubility came to 3.5 µg/mL (≈ 12.6 µM).
On to `Cc1nc(N)[nH]c(=O)c1Oc1cccc(C(F)(F)F)c1`, for which the kinetic solubility amounted to 35.6 µg/mL (≈ 125 µM).
`COC(=O)c1ccc(COc2ccc(/C=N/O)cc2)o1` came in with a solubility (kinetic) greater than 41.3 µg/mL.
The molecule `Nc1nc(NCCOCCO)nc(NCC2CCCO2)c1[N+](=O)[O-]` (stereo unspecified) had a kinetic solubility greater than 51.4 µg/mL.
`CCn1c(CCl)nc2cc(S(=O)(=O)N3CCOCC3)ccc21` came in with a kinetic solubility of 12.9 µg/mL (≈ 37.5 µM).
The figure for `CC(=O)c1c(C)[nH]c(C(=O)COC(=O)c2ccc(Cl)nc2)c1C` is 3.9 µg/mL (≈ 11.7 µM); for `N#Cc1ccc(S(=O)(=O)N2CCc3[nH]c4ccc(F)cc4c3C2)cc1` it is less than 0.3 µg/mL.
In turn, `O=C(NC(=S)N1CCCCCC1)c1cccc([N+](=O)[O-])c1` yielded a kinetic solubility greater than 46.1 µg/mL.
On to `C=CCn1c(O)c(C=NCCCn2ccnc2)c(=O)[nH]c1=O`, for which the kinetic solubility was greater than 45.5 µg/mL.
`O=C(CSc1nnc(-c2ccccc2)o1)NC1CC1` returned a solubility (kinetic) greater than 41.3 µg/mL.
As for `O=C(O)c1ccc(S(=O)(=O)Nc2ccc3c(c2)OCCO3)cc1`, the figure is 41.5 µg/mL (≈ 124 µM); as for `COc1cc(C(=O)N=c2sccn2C)c([N+](=O)[O-])cc1OC`, 47.2 µg/mL (≈ 146 µM); as for `CC1CCCCN1C(=S)NC(=O)c1ccccc1` (stereo unspecified), greater than 39.4 µg/mL.
As to `COc1ccc(/C=N/NC(=O)c2cc[n+]([O-])cc2)cc1OC`, the solubility (kinetic) was greater than 45.2 µg/mL.
In turn, `CC1CCCN(c2c3c(nc4ccccc24)CCCC3)C1` (stereo unspecified) registered a solubility (kinetic) of 0.6 µg/mL (≈ 2.14 µM).
In turn, `COc1ccc(C2=NOC(COc3ccc([N+](=O)[O-])cc3)C2)cc1` (stereo unspecified) gave a kinetic solubility of less than 0.4 µg/mL.
The figure for `O=C(CCNC(=O)c1ccco1)Nc1ccc(OC(F)(F)F)cc1` is 19.7 µg/mL (≈ 57.6 µM); for `COc1ccc(OCC(=O)Nc2nc3cc4c(cc3s2)OCCO4)cc1` it is 4.6 µg/mL (≈ 12.4 µM).
The molecule `CCOc1ccccc1NC(=O)C1C2CCC(O2)C1C(=O)O` (stereo unspecified) yielded a solubility (kinetic) greater than 45.8 µg/mL.
Molecule `Cn1cccc1/C=N/NC(=O)Cc1cccs1` yielded a solubility (kinetic) greater than 37.1 µg/mL.
The figure for `CC[C@H](C)[C@H](NC(=O)c1ccc(Cl)cc1)C(=O)OCC(=O)c1c(N)n(C)c(=O)n(C)c1=O` is 27.7 µg/mL (≈ 59.6 µM); for `O=[N+]([O-])c1ccc2oc(-c3ccccc3)nc2c1` it is less than 0.3 µg/mL.
The figure for `COc1cc(CC(=O)OCC(=O)N2CCCCC2)cc(OC)c1OC` is 46.5 µg/mL (≈ 132 µM).
As for `CC(C)[C@H](NC(=O)c1ccccc1F)C(=O)OCC(=O)Nc1sccc1C(N)=O`, the figure is greater than 63.2 µg/mL; as for `N#C/C(=C(/O)c1ccc([N+](=O)[O-])cc1)c1nc2ccccc2[nH]1`, less than 0.2 µg/mL.
With `O=C(NCc1ccccn1)C(=O)Nc1cccc2ccccc12`, the kinetic solubility is 35.4 µg/mL (≈ 116 µM).
For the molecule `CC(C)(C)C(=O)N1CCN(c2nc3ccc(Cl)cc3s2)CC1`, the solubility (kinetic) was 2.3 µg/mL (≈ 6.81 µM).
As to `Cn1c(O)c(C=Nc2ccc(F)cc2)c(=O)[nH]c1=O`, the kinetic solubility worked out at 11.9 µg/mL (≈ 45.2 µM).
The figure for `Cc1ccc(S(=O)(=O)CC(=O)NC(C)c2ccccc2)cc1` (stereo unspecified) is 42.4 µg/mL (≈ 134 µM); for `CN(C)Cc1c(O)ccc2c(=O)c(-c3ccc(Cl)cc3)coc12` it is greater than 49.5 µg/mL; for `CCN1CCc2c(OCC(=O)N3CCCCC3)cccc2C1=O` it is greater than 47.5 µg/mL.
Consider `O=C(CSc1ncccn1)Nc1ccc2c(c1)CCC2`, for which the kinetic solubility amounted to 37.9 µg/mL (≈ 133 µM).
Turning to `Cc1ccccc1C(=O)NC(=S)N(Cc1ccccc1)c1ccccn1`, the kinetic solubility is greater than 54.2 µg/mL.
`CC1(C)CC(=O)C=C(Nc2cccc(Cl)c2Cl)C1` yielded a solubility (kinetic) of 37.3 µg/mL (≈ 131 µM).
`O=C(CCCc1c[nH]c2ccccc12)NCc1ccccc1F` returned a kinetic solubility of 34.5 µg/mL (≈ 111 µM).
Molecule `CCN(c1ccc(NC(=O)COC(=O)/C=C/c2ccco2)cc1)C(C)C` registered a kinetic solubility of 24.5 µg/mL (≈ 68.7 µM).
Take `Cc1sc2ncnc(SCC(=O)Nc3cccc(S(N)(=O)=O)c3)c2c1C`: the kinetic solubility amounted to 5.3 µg/mL (≈ 13 µM).
In turn, `CN1CCN(C(=O)c2ccccc2[N+](=O)[O-])CC1` came in with a kinetic solubility of 31.5 µg/mL (≈ 126 µM).
As for `COc1ccc(Oc2ncnc3sccc23)cc1`, the figure is 14.9 µg/mL (≈ 57.7 µM); as for `CC(CC(=O)O)C(=O)c1ccc(Cl)c([N+](=O)[O-])c1` (stereo unspecified), greater than 40.7 µg/mL.
`O=C(O)c1ccc(NCc2cccs2)cc1` displayed a kinetic solubility greater than 35 µg/mL.
The figure for `CCCc1ncc(C(O)c2cccc(OC)c2)n1C` (stereo unspecified) is greater than 39.1 µg/mL; for `Cn1c(N)c(C(=O)COC(=O)/C=C/c2cccc(Cl)c2)c(=O)n(C)c1=O` it is 3.3 µg/mL (≈ 8.74 µM); for `c1ccc(CCCN2CCN(c3ccccc3)CC2)cc1` it is 24.3 µg/mL (≈ 86.7 µM).
As to `CCc1ccc(NC(=O)CCC(=O)c2ccccc2)cc1`, the kinetic solubility was 7.5 µg/mL (≈ 26.7 µM).
Regarding `Cc1ccc2nc(SCC(=O)Nc3nonc3N)[nH]c2c1`, the solubility (kinetic) stood at 39 µg/mL (≈ 128 µM).
For the molecule `COCCNC(=O)c1cc2c(s1)-c1ccc(Cl)cc1SC2`, the kinetic solubility worked out at 4.5 µg/mL (≈ 13.2 µM).
The molecule `COc1ccc(CC(=O)Nc2ccc(S(=O)(=O)N3CCCC3)cc2)cc1OC` showed a kinetic solubility greater than 60.7 µg/mL.
`CCOC(=O)CSc1nc(COc2ccccc2)nc2ccccc12` displayed a kinetic solubility of 0.6 µg/mL (≈ 1.69 µM).
For the molecule `CCOc1ccc(C(=O)N2CCc3ccccc32)cc1`, the solubility (kinetic) came to 13.3 µg/mL (≈ 49.8 µM).
For the molecule `COc1ccc(S(=O)(=O)N(CCC#N)Cc2ccco2)cc1OC`, the kinetic solubility was determined as 28.2 µg/mL (≈ 80.5 µM).
As for `COC(=O)c1c(NC(=O)c2ccccc2)sc(C(N)=O)c1C`, the solubility (kinetic) was determined as 1.8 µg/mL (≈ 5.65 µM).
The molecule `COc1ccc(CN2C(=O)C(C)=C(C)C2OC)cc1` (stereo unspecified) had a kinetic solubility greater than 39.2 µg/mL.
Take `CC(NS(=O)(=O)c1ccc2c(c1)CC(=O)N2C)c1ccccc1` (stereo unspecified): the solubility (kinetic) is greater than 49.6 µg/mL.
As to `COc1cccc(OCC(O)CNC(C)c2ccccc2)c1.Cl` (stereo unspecified), the kinetic solubility turned out to be 49.1 µg/mL.
As for `Cc1cc(NS(=O)(=O)c2ccc(NC(=O)C3CCCCC3)cc2)no1`, the figure is 44.1 µg/mL (≈ 121 µM); as for `CCN1CCN(c2oc(-c3ccc([N+](=O)[O-])cc3)nc2C#N)CC1`, 4 µg/mL (≈ 12.2 µM).
In turn, `O=S(=O)(NC1CCCCC1N1CCC(O)CC1)c1ccccc1` (stereo unspecified) displayed a kinetic solubility greater than 50.8 µg/mL.
`N/C(=N\OC(=O)Cc1ccc(-c2ccccc2)cc1)c1ccncc1` came in with a kinetic solubility of 0.7 µg/mL (≈ 2.11 µM).
For `CC(C)N(Cc1ccccc1)C(=O)CN1C(=O)c2ccccc2C1=O`, the kinetic solubility was greater than 50.5 µg/mL.
As for `Cc1cccc(C(=O)N/C(=C\c2ccc(C)o2)C(=O)O)c1`, the figure is greater than 42.8 µg/mL.
Consider `CC(C)Cc1nc2oc3c(NCC(C)O)ncnc3c2c2c1CCCC2` (stereo unspecified), for which the kinetic solubility is 2.1 µg/mL (≈ 5.92 µM).
In turn, `COC(=O)c1c(C)oc(C)c1S(=O)(=O)Nc1ccccc1` showed a solubility (kinetic) greater than 46.4 µg/mL.
The molecule `CCCc1nc2ccc(N)cc2c(=O)n1Cc1ccccc1Cl` gave a solubility (kinetic) of 13 µg/mL (≈ 39.7 µM).
In turn, `Cc1nc(SCC(=O)NCC2CCCO2)nc(C)c1C` (stereo unspecified) registered a kinetic solubility greater than 44.3 µg/mL.
Molecule `COc1cccc2[nH]c(C(=O)NCCCN3CCCC3=O)cc12` yielded a kinetic solubility greater than 47.3 µg/mL.
Regarding `CCOC(=O)c1ccc(NC(=S)NCc2ccccc2)cc1`, the solubility (kinetic) was less than 0.3 µg/mL.
As to `CC(C)(C)NS(=O)(=O)c1ccc(NC(=S)NC(=O)C2CC2)cc1`, the kinetic solubility worked out at 3 µg/mL (≈ 8.44 µM).
For `Cc1nc(C(=O)NNC(=O)c2cccc(Cl)c2)c(C(F)(F)F)o1`, the kinetic solubility is greater than 52.2 µg/mL.
For `O=C(CCc1ccc(S(=O)(=O)N2CCOCC2)cc1)Nc1ccc(F)c(F)c1F`, the kinetic solubility amounted to 44.6 µg/mL (≈ 104 µM).
On to `CCOc1ccccc1NC(=O)c1cnccn1`, for which the solubility (kinetic) was greater than 36.5 µg/mL.
For the molecule `COc1cccc(C2/C(=C(/O)c3ccc4c(c3)CC(C)O4)C(=O)C(=O)N2CC2CCCO2)c1` (stereo unspecified), the kinetic solubility turned out to be 64.7 µg/mL (≈ 144 µM).
Turning to `CN1/C(=C\C=O)C(C)(C)c2ccccc21`, the kinetic solubility is greater than 30.2 µg/mL.
With `CCCCN(C)CCNC(=O)C(NC(=O)C1CCC(C)CC1)C(C)C` (stereo unspecified), the solubility (kinetic) is greater than 53 µg/mL.
`COc1cc(/C=C2\NC(=O)NC2=O)cc(Br)c1OC`: the solubility (kinetic) came out at 10.5 µg/mL (≈ 32.1 µM).
Turning to `CCOc1cc(OCC)cc(C(=O)NCc2ccco2)c1`, the solubility (kinetic) worked out at 5.5 µg/mL (≈ 19 µM).
The figure for `CCC(C)NC(=O)c1cc(-c2ccc3c(c2)OCO3)on1` (stereo unspecified) is 3 µg/mL (≈ 10.4 µM).
Regarding `CN1CCN2c3ccccc3Cc3ccccc3C2C1.Cl` (stereo unspecified), the solubility (kinetic) was greater than 45.1 µg/mL.
Molecule `CC(=O)c1ccc(NC(=S)NC2CCCC(C)C2C)cc1` (stereo unspecified) gave a kinetic solubility of 9.7 µg/mL (≈ 31.9 µM).
For `CC1CN(c2nc(N(C)c3ccccc3)nc(N)c2[N+](=O)[O-])CC(C)O1` (stereo unspecified), the kinetic solubility was found to be 28.6 µg/mL (≈ 79.8 µM).
On to `CCOC(=O)c1sc(NC(=O)CCN2C(=O)C3CCCCC3C2=O)cc1C` (stereo unspecified), for which the kinetic solubility came to 15 µg/mL (≈ 38.2 µM).
In the case of `CCOC(=O)c1cnc(SC)nc1N1CCCC1`, the solubility (kinetic) was greater than 40.1 µg/mL.
With `CCCc1nc(SCC(=O)Nc2nccs2)c2ccccc2n1`, the kinetic solubility was 0.9 µg/mL (≈ 2.61 µM).
Molecule `CNc1ccc(C(=O)OCC(=O)NC(=O)NC2CCCC2)cc1[N+](=O)[O-]` returned a kinetic solubility of 1.7 µg/mL (≈ 4.67 µM).
`O=C(Nc1ccc(O)cc1)/C(=C\C=C\c1ccccc1)NC(=O)c1ccccc1`: the kinetic solubility was 14.9 µg/mL (≈ 38.8 µM).
For the molecule `COc1ccc(C(=O)OCC(=O)Nc2c(C)n(C)n(-c3ccccc3)c2=O)cc1`, the solubility (kinetic) was greater than 59.3 µg/mL.
As for `Cc1ccc2oc(C(=O)Nc3cc(C)on3)c(C)c2c1`, the figure is 1.2 µg/mL (≈ 4.44 µM); as for `O=C(O)CCN=CC1=C(O)CC(c2ccccc2)CC1=O` (stereo unspecified), greater than 43.1 µg/mL; as for `CC(=O)N1CCN(Cc2nc3cc([N+](=O)[O-])ccc3n2C)CC1`, 45.1 µg/mL (≈ 142 µM).
`O=C(Nc1ccc(Cl)cn1)c1ccc2nccnc2c1` registered a kinetic solubility of 3.6 µg/mL (≈ 12.6 µM).
Turning to `CC(C)Cc1ccc(C(C)C(N)=Nc2ccc(O)cc2)cc1.Cl` (stereo unspecified), the solubility (kinetic) is greater than 49.9 µg/mL.
With `CC1SC2(NC1=O)C1CC3CC(C1)CC2C3` (stereo unspecified), the kinetic solubility amounted to 3.4 µg/mL (≈ 14.3 µM).
Take `CC(C)(C)c1ccc(OCC(=O)NCCN2CCOCC2)cc1.Cl`: the solubility (kinetic) stood at 53 µg/mL.
For `O=C(COC(=O)c1cc(S(=O)(=O)N2CCCC2)ccc1O)Nc1ccc(F)cc1F`, the kinetic solubility was greater than 66.1 µg/mL.
`Cc1ccc(SCC(=O)N2CCN(S(=O)(=O)c3cccs3)CC2)cc1` came in with a kinetic solubility of 18.4 µg/mL (≈ 46.4 µM).
As for `S=c1nc(-c2ccccc2)n(Cc2cccnc2)c2c1CCCC2`, the figure is greater than 50 µg/mL; as for `CC1CCc2c(sc(/N=C/c3cccnc3)c2C(N)=O)C1` (stereo unspecified), 26.8 µg/mL (≈ 89.5 µM); as for `Cc1ccc(S(=O)(=O)NCCc2ccncc2)cc1[N+](=O)[O-]`, 46.2 µg/mL (≈ 144 µM).
The molecule `CC1CCc2sc3ncnc(N4CCN(C)CC4)c3c2C1` (stereo unspecified) came in with a kinetic solubility greater than 45.4 µg/mL.
The figure for `O=C(COC(=O)c1ccc2c(c1)OCCO2)NCc1ccccc1Cl` is 5.2 µg/mL (≈ 14.4 µM); for `CC1(C)CC(=O)C(N=Nc2cccnc2)=C(O)C1` it is greater than 36.8 µg/mL.

The values above are taken from PubChem BioAssay AID1996.
